Results: patent US8673950B2, “Dihydrooxazol-2-amine derivatives” (Hoffmann-LaRoche Inc., priority 2010, dated 2014)
Where a name gives a salt, the structure may show the parent alone. Values belong to the compound of their own block, whether it stands above or below them.

Key:
rat TAAR1 = rat TAAR1 (Rattus norvegicus (Rat), UniProt Q923Y9); assay: Radioligand binding assay on rat TAAR1; details: rat TAAR1, membranes of stably transfected HEK-293 cells; second value of cell mouse/rat
Procedure: (§1) Construction of TAAR Expression Plasmids and Stably Transfected Cell Lines
(§2) For the construction of expression plasmids the coding sequences of human, rat and mouse TAAR 1 were amplified from genomic DNA essentially as described by Lindemann et al.. The Expand High Fidelity PCR System (Roche Diagnostics) was used with 1.5 mM Mg^2+ and purified PCR products were cloned into pCR2.1-TOPO cloning vector (Invitrogen) following the instructions of the manufacturer. PCR products were subcloned into the pIRESneo2 vector (BD Clontech, Palo Alto, Calif.), and expression vectors were sequence verified before introduction in cell lines.
(§3) HEK293 cells (ATCC # CRL-1573) were cultured essentially as described by Lindemann et al. (2005). For the generation of stably transfected cell lines HEK293 cells were transfected with the pIRESneo2 expression plasmids containing the TAAR coding sequences (described above) with Lipofectamine 2000 (Invitrogen) according to the instructions of the manufacturer, and 24 hrs post transfection the culture medium was supplemented with 1 mg/ml G418 (Sigma, Buchs, Switzerland). After a culture period of about 10 d clones were isolated, expanded and tested for responsiveness to trace amines (all compounds purchased from Sigma) with the cAMP Biotrak Enzyme immunoassay (EIA) System (Amersham) following the non-acetylation EIA procedure provided by the manufacturer.
Radioligand Binding Assay on Rat TAAR1
(§4) Membrane Preparation and Radioligand Binding.
HEK-293 cells stably expressing rat TAAR1 were maintained at 37° C. and 5% CO2 in DMEM high glucose medium, containing fetal calf serum (10%, heat inactivated for 30 min at 56° C.), penicillin/streptomycin (1%), and 375 μg/ml geneticin (Gibco). Cells were released from culture flasks using trypsin/EDTA, harvested, washed twice with ice-cold PBS (without Ca^2+ and Mg^2+), pelleted at 1'000 rpm for 5 min at 4° C., frozen and stored at −80° C. Frozen pellets were suspended in 20 ml HEPES-NaOH (20 mM, pH 7.4) containing 10 mM EDTA and homogenized with a Polytron (PT 6000, Kinematica) at 14'000 rpm for 20 s. The homogenate was centrifuged at 48'000×g for 30 min at 4° C. Subsequently, the supernatant was removed and discarded, and the pellet resuspended in 20 ml HEPES-NaOH (20 mM, pH 7.4) containing 0.1 mM EDTA using the Polytron (20 s at 14'000 rpm). This procedure was repeated and the final pellet resuspended in HEPES-NaOH containing 0.1 mM EDTA and homogenized using the Polytron. Typically, aliquots of 2 ml membrane portions were stored at −80° C. With each new membrane batch the dissociation constant (Kd) was determined via a saturation curve. […] Nonspecific binding was defined as the amount of ^3[H]-(S)-4-[(ethyl-phenyl-amino)-methyl]-4,5-dihydro-oxazol-2-ylamine bound in the presence of 10 μM unlabeled ligand. All compounds were tested at a broad range of concentrations (10 pM to 10 μM) in duplicates. […] The 96 deep well plates were incubated for 1 hr at 4° C. Incubations were terminated by rapid filtration through Unifilter-96 plates (Packard Instrument Company) and glass filters GF/C (Perkin Elmer) presoaked for 1 hr in polyethylenimine (0.3%) and washed 3 times with 1 ml of cold binding buffer. After addition of 45 μl of Microscint 40 (PerkinElmer) the Unifilter-96 plate was sealed and after 1 hr the radioactivity counted using a TopCount Microplate Scintillation Counter (Packard Instrument Company).

mouse TAAR1 = mouse TAAR1 (Mus musculus (Mouse), UniProt Q923Y8); assay: Radioligand binding assay on mouse TAAR1; details: mouse TAAR1, membranes of stably transfected HEK-293 cells; first value of cell mouse/rat
Procedure: as §1, §2, §3
Radioligand Binding Assay on Mouse TAAR1
as §4
HEK-293 cells stably expressing mouse TAAR1 were maintained at 37° C. and 5% CO2 in DMEM high glucose medium, containing fetal calf serum (10%, heat inactivated for 30 min at 56° C.), penicillin/streptomycin (1%), and 375 μg/ml geneticin (Gibco). Cells were released from culture flasks using trypsin/EDTA, harvested, washed twice with ice-cold PBS (without Ca^2+ and Mg^2+), pelleted at 1'000 rpm for 5 min at 4° C., frozen and stored at −80° C. Frozen pellets were suspended in 20 ml HEPES-NaOH (20 mM, pH 7.4) containing 10 mM EDTA and homogenized with a Polytron (PT 6000, Kinematica) at 14'000 rpm for 20 s. The homogenate was centrifuged at 48'000×g for 30 min at 4° C. Subsequently, the supernatant was removed and discarded, and the pellet resuspended in 20 ml HEPES-NaOH (20 mM, pH 7.4) containing 0.1 mM EDTA using the Polytron (20 s at 14'000 rpm). This procedure was repeated and the final pellet resuspended in HEPES-NaOH containing 0.1 mM EDTA and homogenized using the Polytron. Typically, aliquots of 2 ml membrane portions were stored at −80° C. With each new membrane batch the dissociation constant (Kd) was determined via a saturation curve. The TAAR1 radioligand ^3[H]-(S)-4-[(ethyl-phenyl-amino)-methyl]-4,5-dihydro-oxazol-2-ylamine (described in WO 2008/098857) was used at a concentration equal to the calculated Kd value, that was usually around 0.7 nM, resulting in the binding of approximately 0.5% of the radioligand and a specific binding representing approximately 70% of the total binding. Nonspecific binding was defined as the amount of ^3[H]-(S)-4-[(ethyl-phenyl-amino)-methyl]-4,5-dihydro-oxazol-2-ylamine bound in the presence of 10 μM unlabeled ligand. All compounds were tested at a broad range of concentrations ([…]) in duplicates. […] The 96 deep well plates were incubated for 1 hr at 4° C. Incubations were terminated by rapid filtration through Unifilter-96 plates (Packard Instrument Company) and glass filters GF/C (Perkin Elmer) presoaked for 1 hr in polyethylenimine (0.3%) and washed 3 times with 1 ml of cold binding buffer. After addition of 45 μl of Microscint 40 (PerkinElmer) the Unifilter-96 plate was sealed and after 1 hr the radioactivity counted using a TopCount Microplate Scintillation Counter (Packard Instrument Company).

rat TAAR1, sequence (Q923Y9 whole entry): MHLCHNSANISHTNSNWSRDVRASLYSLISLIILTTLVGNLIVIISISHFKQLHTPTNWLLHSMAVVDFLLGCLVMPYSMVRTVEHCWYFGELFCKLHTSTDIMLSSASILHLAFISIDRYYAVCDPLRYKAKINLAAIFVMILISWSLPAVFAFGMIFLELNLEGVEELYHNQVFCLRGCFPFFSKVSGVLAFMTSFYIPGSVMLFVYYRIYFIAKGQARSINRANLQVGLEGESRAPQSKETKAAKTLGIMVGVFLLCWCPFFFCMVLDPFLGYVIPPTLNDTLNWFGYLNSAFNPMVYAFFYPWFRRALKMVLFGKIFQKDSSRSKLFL
mouse TAAR1, sequence (Q923Y8 whole entry): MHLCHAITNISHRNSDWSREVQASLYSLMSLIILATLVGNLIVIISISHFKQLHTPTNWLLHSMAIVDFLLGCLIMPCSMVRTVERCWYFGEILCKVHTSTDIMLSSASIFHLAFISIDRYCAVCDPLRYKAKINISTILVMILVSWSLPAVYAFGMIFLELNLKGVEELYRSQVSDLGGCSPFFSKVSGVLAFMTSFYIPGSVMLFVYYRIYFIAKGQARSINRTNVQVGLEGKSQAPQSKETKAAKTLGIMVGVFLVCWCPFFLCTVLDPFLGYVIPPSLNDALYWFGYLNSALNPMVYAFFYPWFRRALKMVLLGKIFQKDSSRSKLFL

SMILES: Cc1cccc(Nc2ccc(CC[C@H]3COC(N)=N3)cc2)n1 [Example 25, {4-[2-((S)-2-Amino-4,5-dihydro-oxazol-4-yl)-ethyl]-phenyl}-(6-methyl-pyridin-2-yl)-amine]
Ki (rat TAAR1): 0.0007 µM
Ki (mouse TAAR1): 0.0035 µM

SMILES: NC1=N[C@@H](CCc2ccc(Nc3cncc(Cl)n3)cc2)CO1 [Example 27, {4-[2-((S)-2-Amino-4,5-dihydro-oxazol-4-yl)-ethyl]-phenyl}-(6-chloro-pyrazin-2-yl)-amine]
Ki (rat TAAR1): 0.004 µM
Ki (mouse TAAR1): 0.0182 µM

SMILES: NC1=N[C@@H](CCc2ccc(Nc3cccc(Cl)n3)cc2)CO1 [Example 28, {4-[2-((8)-2-Amino-4,5-dihydro-oxazol-4-yl)-ethyl]-phenyl}-(6-chloro-pyridin-2-yl)-amine]
Ki (rat TAAR1): 0.0005 µM
Ki (mouse TAAR1): 0.001 µM

SMILES: COc1ccc(Nc2ccc(CC[C@H]3COC(N)=N3)cc2)nc1 [Example 30, {4-[2-((S)-2-Amino-4,5-dihydro-oxazol-4-yl)-ethyl]-phenyl}-(5-methoxy-pyridin-2-yl)-amine]
Ki (rat TAAR1): 0.0083 µM
Ki (mouse TAAR1): 0.134 µM

SMILES: N#Cc1cncc(Nc2ccc(CC[C@H]3COC(N)=N3)cc2)n1 [Example 31, 6-{4-[2-((S)-2-Amino-4,5-dihydro-oxazol-4-yl)-ethyl]-phenylamino}-pyrazine-2-carbonitrile]
Ki (rat TAAR1): 0.0059 µM
Ki (mouse TAAR1): 0.0133 µM

SMILES: NC1=N[C@@H](CCc2ccc(Nc3cc(Cl)ncn3)cc2)CO1 [Example 32, {4-[2-((S)-2-Amino-4,5-dihydro-oxazol-4-yl)-ethyl]-phenyl}-(6-chloro-pyrimidin-4-yl)-amine]
Ki (rat TAAR1): 0.0008 µM
Ki (mouse TAAR1): 0.0019 µM

SMILES: COc1cc(Nc2ccc(CC[C@H]3COC(N)=N3)cc2)ncn1 [Example 33, {4-[2-((S)-2-Amino-4,5-dihydro-oxazol-4-yl)-ethyl]-phenyl}-(6-methoxy-pyrimidin-4-yl)-amine]
Ki (rat TAAR1): 0.0023 µM
Ki (mouse TAAR1): 0.0096 µM

SMILES: Cc1nccc(Nc2ccc(CC[C@H]3COC(N)=N3)cc2)n1 [Example 34, {4-[2-((S)-2-Amino-4,5-dihydro-oxazol-4-yl)-ethyl]-phenyl}-(2-methyl-pyrimidin-4-yl)-amine]
Ki (rat TAAR1): 0.0026 µM
Ki (mouse TAAR1): 0.0387 µM

SMILES: NC1=N[C@@H](CCc2ccc(Nc3ccncn3)cc2)CO1 [Example 35, (S)-4-(4-(Pyrimidin-4-ylamino)phenethyl)-4,5-dihydrooxazol-2-amine hydrochloride]
Ki (rat TAAR1): 0.0023 µM
Ki (mouse TAAR1): 0.0551 µM

SMILES: CCc1cnc(Nc2ccc(CC[C@H]3COC(N)=N3)cc2)nc1 [Example 37, {4-[2-((S)-2-Amino-4,5-dihydro-oxazol-4-yl)-ethyl]-phenyl}-(5-ethyl-pyrimidin-2-yl)-amine]
Ki (rat TAAR1): 0.0012 µM
Ki (mouse TAAR1): 0.0013 µM

SMILES: N#Cc1cnc(Nc2ccc(CC[C@H]3COC(N)=N3)cc2)cn1 [Example 39, 5-{4-[2-((8)-2-Amino-4,5-dihydro-oxazol-4-yl)-ethyl]-phenylamino}-pyrazine-2-carbonitrile]
Ki (rat TAAR1): 0.0043 µM
Ki (mouse TAAR1): 0.0128 µM

SMILES: COc1nc(Cl)cc(Nc2ccc(CC[C@H]3COC(N)=N3)cc2)n1 [Example 44, {4-[2-((S)-2-Amino-4,5-dihydro-oxazol-4-yl)-ethyl]-phenyl}-(6-chloro-2-methoxy-pyrimidin-4-yl)-amine]
Ki (rat TAAR1): 0.0011 µM
Ki (mouse TAAR1): 0.001 µM

SMILES: CSc1ccnc(Nc2ccc(CC[C@H]3COC(N)=N3)cc2)n1 [Example 45, {4-[2-((S)-2-Amino-4,5-dihydro-oxazol-4-yl)-ethyl]-phenyl}-(4-methylsulfanyl-pyrimidin-2-yl)-amine]
Ki (rat TAAR1): 0.0013 µM
Ki (mouse TAAR1): 0.0077 µM

Other lines, results leading:

Ki (rat TAAR1): 0.0008 µM
Ki (mouse TAAR1): 0.0007 µM
SMILES: NC1=N[C@@H](CCc2ccc(Nc3cccc(C(F)(F)F)n3)cc2)CO1 [Example 26, {4-[2-((S)-2-Amino-4,5-dihydro-oxazol-4-yl)-ethyl-]-phenyl}-(6-trifluoromethyl-pyridin-2-yl)-amine]

Ki (rat TAAR1): 0.0035 µM
Ki (mouse TAAR1): 0.0306 µM
SMILES: Cc1ccc(Nc2ccc(CC[C@H]3COC(N)=N3)cc2)nc1 [Example 29, {4-[2-((8)-2-Amino-4,5-dihydro-oxazol-4-yl)-ethyl]-phenyl}-(5-methyl-pyridin-2-yl)-amine]

Ki (rat TAAR1): 0.0004 µM
Ki (mouse TAAR1): 0.0047 µM
SMILES: COc1ccnc(Nc2ccc(CC[C@H]3COC(N)=N3)cc2)n1 [Example 36, {4-[2-((S)-2-Amino-4,5-dihydro-oxazol-4-yl)-ethyl]-phenyl}-(4-methoxy-pyrimidin-2-yl)-amine]

Ki (rat TAAR1): 0.0007 µM
Ki (mouse TAAR1): 0.007 µM
SMILES: COc1cnc(Nc2ccc(CC[C@H]3COC(N)=N3)cc2)nc1 [Example 38, {4-[2-((8)-2-Amino-4,5-dihydro-oxazol-4-yl)-ethyl]-phenyl}-(5-methoxy-pyrimidin-2-yl)-amine]

Ki (rat TAAR1): 0.001 µM
Ki (mouse TAAR1): 0.0024 µM
SMILES: NC1=N[C@@H](CCc2ccc(Nc3nccc(C(F)(F)F)n3)cc2)CO1 [Example 40, {4-[2-((S)-2-Amino-4,5-dihydro-oxazol-4-yl)-ethyl]-phenyl}-(4-trifluoromethyl-pyrimidin-2-yl)-amine]

Ki (rat TAAR1): 0.0031 µM
Ki (mouse TAAR1): 0.0593 µM
SMILES: NC1=N[C@@H](CCc2ccc(Nc3nccnc3Cl)cc2)CO1 [Example 41, {4-[2-((S)-2-Amino-4,5-dihydro-oxazol-4-yl)-ethyl]-phenyl}-(3-chloro-pyrazin-2-yl)-amine]

Ki (rat TAAR1): 0.0016 µM
Ki (mouse TAAR1): 0.0008 µM
SMILES: NC1=N[C@@H](CCc2ccc(Nc3cc(C(F)(F)F)cc(Cl)n3)cc2)CO1 [Example 42, {4-[2-((S)-2-Amino-4,5-dihydro-oxazol-4-yl)-ethyl]-phenyl}-(6-chloro-4-trifluoromethyl-pyridin-2-yl)-amine]

Ki (rat TAAR1): 0.0046 µM
Ki (mouse TAAR1): 0.107 µM
SMILES: Cc1cncc(Nc2ccc(CC[C@H]3COC(N)=N3)cc2)n1 [Example 43, {4-[2-((S)-2-Amino-4,5-dihydro-oxazol-4-yl)-ethyl]-phenyl}-(6-methyl-pyrazin-2-yl)-amine]

Ki (rat TAAR1): 0.0012 µM
Ki (mouse TAAR1): 0.0105 µM
SMILES: Cc1cnc(Nc2ccc(CC[C@H]3COC(N)=N3)cc2)nc1 [Example 46, {4-[2-((S)-2-Amino-4,5-dihydro-oxazol-4-yl)-ethyl]-phenyl}-(5-methyl-pyrimidin-2-yl)-amine]
